Earlier results in the CATMoS acute toxicity set (Mansouri et al. 2021).
Values joined by “and” are separate entries in the source; they are usually repeats but may differ in a detail not shown here. Equal entries are not always repeated.

assay: rat acute oral toxicity; details: in vivo

Compound	LD50
O=C1NN=C(c2ccccc2)CO1	441 mg/kg
COc1cccc([C@@]2(O)CCCC[C@H]2CN(C)C)c1	228 mg/kg
O=C(O)COc1nn(Cc2ccccc2)c2ccccc12	1200 mg/kg
COC(C)CO (stereo not given)	5710 mg/kg
COc1ccc2c(=O)c(C)c(C)oc2c1CN(C)C	7.8 mg/kg
COc1ccccc1N1CCN(CCCc2ccc3c(c2)CCC(=O)N3)CC1	500 mg/kg
Cc1ccc(C#N)cc1	3800 mg/kg
CCSc1nc(NC(C)C)nc(NC(C)C)n1	3900 mg/kg
CC=C1CC(C)C(C)(O)C(=O)OCC2=CCN3CCC(OC1=O)C23 (stereo not given)	85 mg/kg
C[N+]1(C)CCC(=C(c2ccccc2)c2ccccc2)CC1	1110 mg/kg
CCNc1nc(NC(C)(C)C)nc(OC)n1	433 mg/kg
CN(C)c1ccc(N)cc1	48 mg/kg
CCC(CC)C(=O)OCC(Cl)(Cl)Cl	900 mg/kg
NC(=S)NNCNNC(N)=S	6.35 mg/kg
CNC(=O)Oc1ccccc1CCCSC	220 mg/kg
NC(CO)(CO)CO	5900 mg/kg
CCOC(=O)CN(C(=O)CCl)c1c(CC)cccc1CC	2300 mg/kg
N#Cc1ccc(C2CCCc3cncn32)cc1 (stereo not given)	200 mg/kg
CCC(CC)C(=O)OCC(Br)(Br)Br	4000 mg/kg
CC[C@@H](CO)NC(=O)[C@@H]1C=C2c3cccc4c3c(cn4C)C[C@H]2N(C)C1	2100 mg/kg
CC[N+](C)(C)CCC(C(N)=O)(c1ccccc1)c1ccccc1	1350 mg/kg
COc1ccc(C(Oc2ccccc2)C2=NCCCN2)cc1 (stereo not given)	1000 mg/kg
O=C(O)C=Cc1ccc([N+](=O)[O-])o1	1220 mg/kg
CCCN=C(N)C(OCC)c1ccccc1 (stereo not given)	530 mg/kg
CCOC(=O)[C@H](CCc1ccccc1)N[C@@H](C)C(=O)N1C(=O)N(C)C[C@H]1C(=O)O	3540 mg/kg

Compound	LD50
CC(Oc1ccc(Oc2ccc(Cl)cc2)cc1)C(=O)O (stereo not given)	1200 mg/kg
CC(=O)OCc1ccc2c(c1)OCO2	2100 mg/kg
CC(C)C(OCCO)C(C)C	1070 mg/kg
C[Si](Cl)(Cl)CCC(F)(F)F	1000 mg/kg
O=NN(CCCl)C(O)=NC1C[C@H]2CC[C@@H]1C2 (stereo not given in full)	83 mg/kg
CCCCSc1nc2ccccc2s1	1270 mg/kg
CCCC(CCC)C(N)=O	890 mg/kg
CN(CCn1cnc2c1c(=O)n(C)c(=O)n2C)c1ccccc1	2880 mg/kg
CCOP(=O)(OCC)SCSCC	0.25 mg/kg
Nc1ccc([N+](=O)[O-])c(N)c1	4500 mg/kg
Cc1cc(=O)c2c(C)ccc(C)c2o1	2960 mg/kg
C=CC(=O)OCCOCCOCCOC(=O)C=C	500 mg/kg
CCOP(=S)(OCC)SCC(=O)NC(C)C	8 mg/kg
CC(=O)Oc1ccc(C#N)cc1	500 mg/kg
CCCCCCOC(C)=O	42000 mg/kg
O=S1(=O)CC(Cl)(Cl)C(Cl)(Cl)C1	87 mg/kg
O=C=Nc1ccc([N+](=O)[O-])cc1	1600 mg/kg
Cc1c(Cl)c(=O)oc2cc(OP(=O)(OCCCl)OCCCl)ccc12	900 mg/kg
CC1(C)[C@@H](OC(=O)CCC(=O)O)CC[C@]2(C)[C@H]3C(=O)C=C4[C@@H]5C[C@@](C)(C(=O)O)CC[C@]5(C)CC[C@@]4(C)[C@]3(C)CC[C@@H]12	2450 mg/kg
CC=Cc1ccccc1	3600 mg/kg
CCOP(=S)(OCC)SCSCSP(=S)(OCC)OCC	8.5 mg/kg
CC(C)(C)CC(C)(C)Nc1ncnc(N(CCCCCCNC2CC(C)(C)NC(C)(C)C2)C2CC(C)(C)NC(C)(C)C2)n1	9910 mg/kg
CC(=O)Nc1ccc(S(=O)(=O)Nc2cc(C)on2)cc1	8400 mg/kg
O=C(O)C(c1ccc(Cl)cc1)c1ccc(Cl)cc1	600 mg/kg and 740 mg/kg
CNC(=O)Oc1ccc(NC(C)=O)cc1	794 mg/kg

Compound	LD50
COC(=O)c1cccc(C(=O)OC)c1	4390 mg/kg
CC(=O)CCCO	6400 mg/kg
COB(OC)OC	6140 mg/kg
CCCCCCCCCCCCCCCCCC1=NC(C)CC(C)(C)N1 (stereo not given)	493 mg/kg
CCCCCN(C)N=O	120 mg/kg
CC(=O)O[C@]1(C(C)=O)CC[C@H]2[C@@H]3C=C(Cl)C4=CC(=O)CC[C@]4(C)[C@H]3CC[C@@]21C	6400 mg/kg
CC(=O)O[C@]1(C)CC[C@@]23C[C@@H]1C(C)(C)[C@@H]2CC[C@H]3C	44800 mg/kg
CCCCCCCCc1ccc(-c2ccccc2)cc1	2400 mg/kg
CCCCN(N=O)C(=O)OCC	900 mg/kg
CO[Si](C)(CCCNCCN)OC	200 mg/kg
O=[N+]([O-])c1ccc(Sc2ccc([N+](=O)[O-])cc2)cc1	1490 mg/kg
O=C(O)CCCc1ccc(N(CCCl)CCCl)cc1	76 mg/kg
CCOC(=O)Nc1ccc2c(c1)N(C(=O)CCN(CC)CC)c1ccccc1CC2	138 mg/kg
C[N+]1(C)[C@@H]2CC[C@H]1C[C@@H](OC(=O)C(CO)c1ccccc1)C2 (stereo not given in full)	1050 mg/kg and 1900 mg/kg
CC(C)CC(C)OC(=O)/C=C\C(=O)OC(C)CC(C)C (stereo not given)	7340 mg/kg
CCOP(=S)(OCC)SC1COCCS1 (stereo not given)	3 mg/kg
CCC(CC)COCCC#N	2460 mg/kg
CC1=C(CC(=O)O)c2cc(F)ccc2/C1=C\c1ccc(S(C)=O)cc1 (stereo not given)	264 mg/kg
CNS(=O)(=O)c1cc(OC)c(N)cc1C	91.5 mg/kg
CN(CCc1ccccc1)N=O	48 mg/kg
CC(C)=CC(=O)Nc1ccc(O)cc1	1950 mg/kg
CCCSc1nc(Cl)c([N+](=O)[O-])c(Cl)n1	300 mg/kg
ClCc1ccc(CCl)cc1	1280 mg/kg
COc1cc(Oc2ccc(Cl)cc2Cl)ccc1[N+](=O)[O-]	18000 mg/kg
Cc1ncsc1C	960 mg/kg
